Data from the NIST ThermoML archive (doi:10.1016/j.jct.2010.05.002).

Experiment: molar heat capacity at constant pressure
Settings: 101.33 kPa, Vacuum adiabatic calorimetry

CC(C)(C)c1ccc(-c2ccccc2)cc1 [4-(1,1-dimethylethyl)-1,1'-biphenyl]
Settings | molar heat capacity at constant pressure [J/K/mol]
156.5 K, Crystal | 164.59
157.48 K, Crystal | 165.54
158.46 K, Crystal | 168.2
159.4 K, Crystal | 167.88
160.49 K, Crystal | 170.03
162.35 K, Crystal | 170.22
163.32 K, Crystal | 171.45
164.3 K, Crystal | 171.68
165.27 K, Crystal | 172.24
166.24 K, Crystal | 173.77
167.21 K, Crystal | 175.03
168.17 K, Crystal | 175.74
169.13 K, Crystal | 176.91
170.1 K, Crystal | 177.85
171.06 K, Crystal | 178.74
172.03 K, Crystal | 179.57
172.99 K, Crystal | 180.33
173.96 K, Crystal | 181.16
174.88 K, Crystal | 181.91
175.84 K, Crystal | 182.48
176.8 K, Crystal | 183.39
177.75 K, Crystal | 184.41
178.71 K, Crystal | 186.15
179.67 K, Crystal | 186.69
180.62 K, Crystal | 187.72
181.58 K, Crystal | 187.66
182.53 K, Crystal | 188.58
183.48 K, Crystal | 190.07
184.43 K, Crystal | 190.57
185.38 K, Crystal | 191.97
186.33 K, Crystal | 192.5
187.27 K, Crystal | 193.52
188.22 K, Crystal | 194.65
189.16 K, Crystal | 195.58
190.05 K, Crystal | 196.73
190.99 K, Crystal | 197.88
191.93 K, Crystal | 198.13
192.87 K, Crystal | 199.81
193.81 K, Crystal | 200.3
194.75 K, Crystal | 200.51
195.68 K, Crystal | 201.32
196.61 K, Crystal | 203.32
197.55 K, Crystal | 203.52
198.48 K, Crystal | 205.18
199.41 K, Crystal | 205.85
200.34 K, Crystal | 205.72
201.52 K, Crystal | 207.22
202.94 K, Crystal | 208.68
204.37 K, Crystal | 210.19
205.79 K, Crystal | 211.33
207.14 K, Crystal | 212.7
208.55 K, Crystal | 214.44
209.96 K, Crystal | 215.21
211.37 K, Crystal | 217.19
212.78 K, Crystal | 218.22
214.19 K, Crystal | 219.53
215.59 K, Crystal | 220.68
216.99 K, Crystal | 222.17
218.39 K, Crystal | 224.18
219.79 K, Crystal | 225.72
221.18 K, Crystal | 226.72
222.9 K, Crystal | 227.94
224.62 K, Crystal | 229.7
226 K, Crystal | 231.67
227.39 K, Crystal | 232.23
228.77 K, Crystal | 233.85
230.14 K, Crystal | 234.83
231.52 K, Crystal | 236.49
232.88 K, Crystal | 237.84
234.25 K, Crystal | 239.02
235.61 K, Crystal | 240.58
236.97 K, Crystal | 241.66
238.33 K, Crystal | 243.18
239.69 K, Crystal | 244.52
241.05 K, Crystal | 245.68
242.4 K, Crystal | 247.57
243.75 K, Crystal | 248.49
244.98 K, Crystal | 249.71
246.33 K, Crystal | 251.82
247.66 K, Crystal | 253.81
249 K, Crystal | 254.6
250.34 K, Crystal | 256.26
251.68 K, Crystal | 256.95
253.01 K, Crystal | 258.51
254.34 K, Crystal | 259.55
255.66 K, Crystal | 261.49
256.97 K, Crystal | 262.33
258.29 K, Crystal | 263.11
259.61 K, Crystal | 265.21
260.92 K, Crystal | 267.1
262.23 K, Crystal | 268.4
263.54 K, Crystal | 269.72
264.84 K, Crystal | 270.96
265.99 K, Crystal | 271.74
267.28 K, Crystal | 273.32
268.57 K, Crystal | 275.22
269.86 K, Crystal | 276.29
271.15 K, Crystal | 277.98
272.43 K, Crystal | 280.14
273.71 K, Crystal | 281.15
274.98 K, Crystal | 281.51
276.26 K, Crystal | 282.58
277.52 K, Crystal | 284.25
278.79 K, Crystal | 285.49
280.04 K, Crystal | 286.95
281.3 K, Crystal | 288.13
282.55 K, Crystal | 289.87
283.8 K, Crystal | 290.87
285.04 K, Crystal | 291.7
286.08 K, Crystal | 293.13
287.32 K, Crystal | 295.16
288.53 K, Crystal | 295.47
289.76 K, Crystal | 296.85
292.2 K, Crystal | 299.34
293.41 K, Crystal | 300.48
294.63 K, Crystal | 301.51
295.83 K, Crystal | 302.32
297.03 K, Crystal | 303.76
298.23 K, Crystal | 303.58
299.42 K, Crystal | 305.47
300.61 K, Crystal | 306.04
301.79 K, Crystal | 308.28
302.89 K, Crystal | 309.67
303.99 K, Crystal | 310.47
305.04 K, Crystal | 312.55
306.34 K, Crystal | 313.92
307.46 K, Crystal | 315.51
308.62 K, Crystal | 315.74
309.76 K, Crystal | 319.18
310.9 K, Crystal | 320.42
312.03 K, Crystal | 320.51
313.15 K, Crystal | 321.63
314.25 K, Crystal | 323.46
315.35 K, Crystal | 326.54
316.44 K, Crystal | 326.58
317.52 K, Crystal | 328.97
318.58 K, Crystal | 333.26
325.87 K, Liquid | 381
327.07 K, Liquid | 382.02
328.07 K, Liquid | 382.22
329.06 K, Liquid | 382.84
330.05 K, Liquid | 383.2
331.03 K, Liquid | 383.56
332.01 K, Liquid | 384.21
332.98 K, Liquid | 384.73
333.94 K, Liquid | 386.4
334.9 K, Liquid | 386.26
335.85 K, Liquid | 387.48
336.8 K, Liquid | 388
337.74 K, Liquid | 388.46
338.68 K, Liquid | 388.8
339.61 K, Liquid | 389.81
340.53 K, Liquid | 390.68
340.99 K, Liquid | 390.97
341.91 K, Liquid | 391.9
342.82 K, Liquid | 392.95
343.73 K, Liquid | 393.35
344.62 K, Liquid | 393.96
345.52 K, Liquid | 394.82
346.4 K, Liquid | 396.04
347.28 K, Liquid | 396.15
348.16 K, Liquid | 397.03
349.03 K, Liquid | 396.87
349.89 K, Liquid | 397.86
350.75 K, Liquid | 398.4
351.6 K, Liquid | 397.8
352.45 K, Liquid | 397.92
354.12 K, Liquid | 401.27
354.41 K, Liquid | 401.25
355.24 K, Liquid | 400.85
356.06 K, Liquid | 400.95
356.87 K, Liquid | 401.61
357.67 K, Liquid | 402.4
358.47 K, Liquid | 402.62
359.27 K, Liquid | 402.51
360.06 K, Liquid | 402.5
360.84 K, Liquid | 404.15
361.61 K, Liquid | 405.1
362.38 K, Liquid | 405.27
363.15 K, Liquid | 406.09
363.91 K, Liquid | 406.9
364.66 K, Liquid | 406.47
365.41 K, Liquid | 407.47
366.15 K, Liquid | 407.61
366.27 K, Liquid | 407.63
367.01 K, Liquid | 406.87
367.73 K, Liquid | 408.31
368.45 K, Liquid | 410.51
369.17 K, Liquid | 410.57
369.88 K, Liquid | 409.74
370.58 K, Liquid | 410.84
